According to patent US5663207A, “Gem-dichlorocyclopropanes as antitumor agents” (priority 1995, dated 1997):
Entries after “also recorded” stand apart in the source; their conditions may differ.

Target: T1, estrogen receptor (Rattus norvegicus, UniProt P06211)
T1 construct: ovariectomized rat uterine cytosolic estrogen receptor preparation; from tissue; host or cells: uterine cytosol of ovariectomized Sprague-Dawley rats (immature rats from Sasco are named as uterus source, mature ovariectomized rats)
T1 sequence (P06211 1-600): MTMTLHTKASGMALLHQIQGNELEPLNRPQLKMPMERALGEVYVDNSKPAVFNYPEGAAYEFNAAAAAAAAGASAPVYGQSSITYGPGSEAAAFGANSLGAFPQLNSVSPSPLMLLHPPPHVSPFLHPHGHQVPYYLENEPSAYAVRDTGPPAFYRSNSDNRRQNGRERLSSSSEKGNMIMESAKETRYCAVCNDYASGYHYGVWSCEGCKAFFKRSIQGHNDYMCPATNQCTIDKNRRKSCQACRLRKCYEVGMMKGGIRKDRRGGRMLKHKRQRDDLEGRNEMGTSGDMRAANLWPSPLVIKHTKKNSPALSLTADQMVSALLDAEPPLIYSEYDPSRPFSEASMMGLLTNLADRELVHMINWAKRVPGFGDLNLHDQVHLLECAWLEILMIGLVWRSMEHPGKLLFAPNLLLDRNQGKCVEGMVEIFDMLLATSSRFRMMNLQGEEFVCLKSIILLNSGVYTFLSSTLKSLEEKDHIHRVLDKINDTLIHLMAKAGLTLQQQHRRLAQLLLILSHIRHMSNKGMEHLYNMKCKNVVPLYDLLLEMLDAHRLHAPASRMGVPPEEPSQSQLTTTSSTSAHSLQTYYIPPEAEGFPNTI
Test: Receptor binding assay: displacement of [3H]-estradiol from rat uterine cytosol
Design: species or system rat (Sprague-Dawley)
Conditions: for RBA (relative binding affinity): relative to estradiol = 100%, average of duplicate determinations minus nonspecific binding
Description: The biological evaluation of the test compounds consisted of the in vitro rat cytosolic estradiol receptor binding assay, the in vivo immature mouse uterotrophic (estrogenic) and antiuterotrophic (antiestrogenic) assays, and the in vitro suppression of the proliferation of the ER positive MCF-7 human breast cancer cell line. Estradiol (pure agonist), TAM (agonist in mice and antagonist in MCF-7), MER 25 (pure antagonist) and Analog II (antagonist in mice) were used in the assay as standards.
Vital-free immature female Swiss-Webster mice were obtained at 17-19 days of age from Sasco weighing 8-10 g, and were used in the uterotrophic and antiuterotrophic assays. Immature female Sprague-Dawley rats, obtained at 17-19 days of age from Sasco, weighing 28-33 g, were used as sources of uteri for the estradiol receptor binding assay. Animals were housed in wire topped polycarbonate cages at six animals per cage, with the environment controlled at 25° C. and a 12 h light/dark cycle. The animals received a diet of Wayne Lab Blox rodent chow and tap water ad libitum.
The RBAs of the test compounds were determined by the displacement of [^3 H]-estradiol in vitro, as described previously (DAY, B. W., […], R. A., JAIN, P., PENTO, J. T., MOUSISSIAN, G. K. AND MEYER, K. L. (1991), "Synthesis and biological evaluation of a series of 1,1-dichloro-2,2,3-triarylcyclopropanes as pure antiestrogens", Journal of Medicinal Chemistry, 34, 842; KORENMAN, S. G. (1969), "Comparative binding affinity of estrogens and its relation to estrogenic potency", Steroid, 13, 163). Mature female Sprague-Dawley rats were ovariectomized at least two weeks prior to the receptor binding experiment. Each test compound was assayed at three concentrations in duplicate over a range of 10^-3 -10^-5 M and 10^-6 -10^-8 M for the estradiol standard. The non-specific binding was determined by a parallel incubation of each compound with the addition of diethylstilbestrol to give a final concentration of 2×10^-5 M DES which was sufficient to saturate all the estrogen receptors present in the cytosolic fraction. Specific displacement for each compound was determined by subtraction of nonspecific displacement from total displacement. The [^3 H]-estradioldisplacement curve for each test compound was determined by linear repression analysis and plotted graphically. The relative binding affinity for each compound was calculated (BLISS, C.I. (1967), "The statistics in biology", McGraw Hill, Inc: New York).
^a Determined by competitive radiometric binding assay with rat
uterine cytosol as a source of receptor, [^3 H]estradiol as tracer,
and dextrancoated charcoal as absorbant for free ligand.
^c Binding affinities are expressed relative to that of estradiol =
100% (RBA = relative binding affinity) and are the average of duplicate
determinations minus nonspecific binding.
The relative binding affinities (RBAs), as determined by the competitive radiometric binding assay and measured by [^3 H]-estradiol displacement from the ovariectomized rat uterine cytosolic estrogen receptor preparation, after subtracting non-specific receptor binding, were calculated for all of the synthesized target compounds, TAM, MER 25, Analog II, and estradiol. The displacement curves were plotted as percent receptor-bound [^3 H]-estrodiol versus concentration of test compounds (not shown) and the receptor binding affinity of each compound is presented in Table II.

CC(=O)Oc1ccc([C@H]2[C@@H](c3ccccc3)C2(Cl)Cl)cc1 (relative stereo) [Compound 10, 1,1-Dichloro-cis-2-(p-acetoxyphenyl)-3-phenylcyclopropane]
RBA (relative binding affinity): 0.07%

Oc1ccc(C2(c3ccc(O)cc3)C(Cl)(Cl)C23CCCCC3)cc1 [Compound 30, 1,1-Dichloro-2,2-bis-(p-hydroxyphenyl)-spiro[2.5]octane]
RBA ranking (in words) (among the compounds tested): comparable to tamoxifen; also recorded: the highest
RBA (relative binding affinity): 0.62%
